From US20040266749A1, “Methods for cystic fibrosis disease assessment and methods for treating anaerobic P. aeruginosa biofilms in cystic fibrosis disease” (priority 2002, published 2004)

Test system: P. aeruginosa rhlR mutant anaerobic biofilm
Assay: Anaerobic biofilm protection of rhlR mutant bacteria by carboxy-PTIO (confocal LIVE/DEAD viability)
Type: cell-based, Pseudomonas aeruginosa
Settings: 5 mM carboxy-PTIO
Experimental: (b) Confocal examination of biofilms. For biofilm architecture examination, circular coverslips are glued to the bottom of 35×10 mm polystyrene tissue culture dishes with small holes in the base (Falcon). The plates are sterilized overnight by UV irradiation. Three ml of aerobic L-broth, aerobic LBN or anaerobic LBN is inoculated with ˜10^7 CFU of overnight L-broth grown culture. After 24 hr at 37° C., biofilms are washed with saline and stained with 0.5 ml of a LIVE/DEAD BacLight bacterial viability stain (Molecular Probes, Inc., Eugene, Oreg.). Images are acquired on a Zeiss LSM 510 laser scanning confocal unit attached to an Axiovert microscope using a 63×1.4 NA oil immersion objective. For two color images, samples are scanned sequentially at 488 nm and 546 nm. Syto 9 (green fluorescence) is detected through a 505-530 nm bandpass filter and propidium iodine (red fluorescence) is detected through a 560 nm longpass filter and presented in two channels of a 512×512 pixel, 8-bit image.
(a) Anaerobic biofilm protection by 2-(4-Carboxyphenyl)-4,4,5,5-tetramethylimidazoline-1-oxyl-3-oxide (carboxy-PTIO). Biofilms of rhlR mutant bacteria are grown anaerobically in the presence vs. absence of 5 mM carboxy-PTIO (Molecular Probes, Eugene, Oreg.), an NO scavenger. […]

## CC1(C)N([O])C(c2ccc(C(=O)O)cc2)=[N+]([O-])C1(C)C [carboxy-PTIO, 2-(4-Carboxyphenyl)-4,4,5,5-tetramethylimidazoline-1-oxyl-3-oxide]
Anaerobic rhlR mutant biofilm, sagittal sectioning, FIG. 3B line 2 vs. 1
  Biofilm zone in which protection is primarily observed (top of the biofilm): 10-15 μm
rhlR mutant grown anaerobically as biofilm, FIG. 3A panels 2 vs. 1
  Protection of anaerobic rhlR mutant biofilm bacteria from cell death (viability): protected the rhlR mutant
